{"source": "patent US20100168085A1", "about": "“Dopamine and agonists and antagonists thereof for modulation of suppressive activity of CD4+CD25+ regulatory T cells” (YESA RESEARCH AND DEVELOPMENT CO. LTD. at the Weizmann …, priority 2003, published 2010)", "key": {"[1]": {"test_system": "suppressive activity of CD4+CD25+ regulatory T cells (Treg) on Teff proliferation", "assay": "Inhibition assay (co-culturing of Teff with Treg), [3H]-thymidine incorporation", "type": "cell-based, mouse", "conditions": "for Effect on ability of Treg to suppress Teff proliferation: Treg preincubated with different concentrations; for Suppressive activity of Treg on Teff, kinase inhibitor treatment: activated Treg incubated with inhibitor", "description": "(xvi) Activation of CD4^+CD25^+ regulatory T cells. Purified regulatory T cells (Treg; 0.5×10^6 cells/mL) were activated in RPMI medium supplemented with L-glutamine (2 mM), 2-mercaptoethanol (5×10^−5 M), sodium pyruvate (1 mM), penicillin (100 IU/mL), streptomycin (100 μg/mL), nonessential amino acids (1 mL/100 mL), and autologous serum 2% (vol/vol) in the presence of mrIL-2 (5 ng/mL) and soluble anti-CD3 antibodies (1 ng/mL). Irradiated (2500 rad) splenocytes (1.5×10^6 cells/mL) were added to the culture. Cells were activated for 24 or 96 h. In some of the 96-h experiments, fresh dopamine was added to the culture every 24 h during activation.\n(xvii) Inhibition assay (co-culturing of Teff with Treg). Naïve effector T cells (Teff; 50×10^3 cells/well) were co-cultured with decreasing numbers of activated Treg for 72 h in 96-well flat-bottomed plates in the presence of irradiated splenocytes (10^6/mL) supplemented with anti-CD3 antibodies. [^3H]-thymidine (1 μCi) was added for the last 16 h of culture. After the cells were harvested, their [^3H]-thymidine content was analyzed by the use of […].\nIn this experiment, we examined whether dopamine acts on Treg and alters their suppressive effect on Teff. Suppression of proliferation of Teff, assayed by [^3H]thymidine incorporation, was used as a measure of suppressive effect of Treg (Thornton and Shevach, 1998).\nShevach, 1998, 2000). Inhibition of Treg proliferation, assayed by [^3H]thymidine incorporation, can therefore be taken as a measure of the suppressive effect. We examined the ability of major neurotransmitters and neuropeptides (dopamine, norepinephrine, substance P, and serotonin) to alleviate the Treg-induced suppression of Teff in vitro. Each compound was tested at several concentrations. […] After incubating the activated Treg for 2 h with a neurotransmitter or a neuropeptide, we washed the cells and then co-cultured them with Teff."}, "[2]": {"test_system": "mice, glutamate-induced retinal ganglion cell death", "assay": "Intravitreal glutamate toxicity, retinal ganglion cell survival", "type": "in vivo, mouse", "conditions": "for Changes in neuronal survival in treated relative to untreated mice (mean±SEM): systemic injection immediately after glutamate intoxication", "description": "(iii) Intravitreal glutamate injection. The right eyes of anesthetized mice were punctured with a 27-gauge needle in the upper part of the sclera, and a 10-μL Hamilton syringe with a 30-gauge needle was inserted as far as the vitreal body. A total volume of 1 μl, of L-glutamate (400 nmol) dissolved in saline was injected into the eye.\n(iv) Retrograde labeling of retinal ganglion cells. Mice were anesthetized and placed in a stereotactic device. The skull was exposed and kept dry and clean. The bregma was identified and marked. The designated point of injection was at a depth of 2 mm from the brain surface, 2.92 mm behind the bregma in the anteroposterior axis and 0.5 mm lateral to the midline. A window was drilled in the scalp above the designated coordinates in the right and left hemispheres. The neurotracer dye FluoroGold (5% solution in saline; Fluorochrome, Denver, Colo.) was applied (1 μL, at a rate of 0.5 μL/min in each hemisphere) using a Hamilton syringe, and the skin over the wound was sutured.\n(xxi) Assessment of mouse retinal ganglion cell survival. Mice were given a lethal dose of pentobarbitone (170 mg/kg). Their eyes were enucleated and the retinas were detached and prepared as flattened whole mounts in 4% paraformaldehyde solution. Labeled cells from 4-6 selected fields of identical size (0.7 mm^2) were counted. The selected fields were located at approximately the same distance from the optic disk (0.3 mm) to overcome the variation in RGC density as a function of distance from the optic disk. Fields were counted under the fluorescence microscope (magnification ×800) by observers blinded to the identity of the retinas. The average number of RGCs per field in each retina was calculated.\nInjection of glutamate into the eyes of adult mice causes retinal ganglion cell death that is measurable 1 week after the injection (Mizrahi et al., 2002; Schori et al., 2001a; Katayama et al., 1990). We injected Balb/c mice intraperitoneally (i.p.) with the dopamine, or its specific D1-type agonist SKF-38393 (3.3 mg/kg), or its specific D1-type antagonist SCH-23390 (3 mg/kg), immediately after their exposure to glutamate toxicity. We also injected SCID Balb/c mice with SKF-38393 (3.3 mg/kg) immediately after glutamate intoxication.\nImmediately after glutamate intoxication mice were systemically injected with the indicated drugs. Neuronal survival was determined ten days later (see Materials and Methods). The results are expressed by changes (in percentage) in neuronal survival in treated mice relative to untreated mice. Each value represents a mean±SEM of a group of at least 5 animals, and each experiment was performed at least twice, independently. Asterisks (***, P<0.001; **, P<0.01) indicate statistical significance of the presented data from a single experiment using a Student's T-test statistical analysis. (NT—not tested; ns—no statistical significance)."}, "[3]": {"test_system": "adhesion of Treg and Teff to chondroitin sulfate proteoglycans (CSPG)", "assay": "T cell adhesion to CSPG", "type": "cell-based, mouse", "description": "(xiii) T cell adhesion. Adhesion of activated CD4^+CD25^+ and CD4^+CD25^− T cells to CSPG was analyzed as previously described (23). Briefly, flat-bottomed microtiter (96-well) plates were pre-coated with CSPG (1 μg/well, 40 min, 37° C.). ^51Cr-labeled T cells were left untreated or were pre-incubated (30 min, 37° C.) with dopamine or the specified agonist or antagonist (10^−5M). The cells (10^5 cells in 100 μL of RPMI containing 0.1% BSA) were then added to the CSPG-coated wells, incubated (30 min, 37° C.), and washed. Adherent cells were lysed and the resulting supernatants were removed and counted in a γ-counter. Results were expressed as the mean percentage of the total population before adhesion of bound T cells from quadruplicate wells for each experimental group.\nOne of the main features of T cells is their ability to migrate to tissues in need of rescue or repair [such as diseased or damaged CNS (Hickey, 1999; Flugel et al., 2001). […] We therefore incubated Treg with dopamine for 2 h and then examined their adhesion to chondroitin sulfate proteoglycans (CSPG), extracellular matrix proteins often associated with injured tissues (Jones et al., 2003).\nTo verify that the effect of dopamine on adhesion of Treg is exerted through the ERK1/2 pathway, we incubated Treg with the ERK1/2 signaling pathway inhibitor PD98059 before carrying out the adhesion assay. […] Since interaction of T cells with CSPG is mediated in part by the CD44 receptor (Henke et al., 1996), and in light of the known dependence of CD44 expression on the ERK signaling pathway, it was conceivable that dopamine might affect the expression of CD44 in Treg."}, "[4]": {"test_system": "mice, glutamate-induced retinal ganglion cell death", "assay": "Intravitreal glutamate toxicity, retinal ganglion cell survival", "type": "in vivo, mouse", "conditions": "retinas excised 7 days afterwards"}, "[5]": {"test_system": "phospho-ERK1/2 in Treg and Teff", "assay": "ERK1/2 phosphorylation (intracellular FACS staining, Western blot)", "type": "cell-based, mouse", "conditions": "activation with anti-CD3 and anti-CD28 for 20 min", "experimental": "(ix) FACS analysis of intracellular labeling of phosphorylated form of ERK. T-cell subpopulations were fixed in 1.5% formaldehyde for 10 min at room temperature, washed, resuspended with vortexing in cold 100% methanol, and incubated for 1 h at 4° C. The cells were then washed with PBS containing 1% bovine serum albumin (BSA) and resuspended in 100 μL of PBS/BSA, and 12.5 μL of anti-phosphoERK1 & 2 (BioSource) was added for 20 min at room temperature. The cells were then washed, resuspended in PBS, and analyzed by FACSCalibur (Becton-Dickinson). As a negative control we incubated the phospho-peptide for 20 min with its antibody and then added the mixture to T cells.\n(xix) Western blotting. Cells were stimulated for 20 min with anti-CD3 and anti-CD28 antibodies in the presence or absence of dopamine or SKF-38393. Cell lysates were prepared using RIPA lysis buffer (50 mM Tris, pH 8; 0.1% SDS; 0.5% deoxycholate; 1% NP40; 500 mM NaCl; 10 mM MgCl2) and were then kept on ice for 10 min before being vortexed and centrifuged. Supernatants were collected and 5× sample buffer (containing 25 mM Tris pH 6.8, 2% sodium dodecyl sulfate (SDS), 10% glycerol, 0.1% bromophenol blue, 0.5 M β-mercaptoethanol) was added prior to boiling. Cell extracts were separated by SDS-PAGE (10% polyacrylamide), and blotted onto nitrocellulose. Activated ERK1/2 was detected by probing blots with a 1:30,000 dilution of monoclonal antibody. Total ERK protein was detected by using a 1:10,000 dilution of a polyclonal rabbit antibody. The blots were developed by horseradish peroxidase-conjugated anti-mouse or anti-rabbit Fab and ECL (Amersham). Signals were quantified using NIH Image 1.62.\nTreg were activated for 20 min in the presence or absence of dopamine (10^−5 M), and were then subjected to intracellular phosphoprotein staining (Perez and Nolan 2002) and analyzed by flow cytometry. […] As a measure of the background nonspecific staining of the phosphorylated ERK we used a specific peptide of phospho-ERK, which competes for binding of the antibody. The intracellular staining procedure for phospho-ERK detection by FACS was validated by the use of Teff incubated with 20 μM phorbol 12-myristate 13-acetate (PMA), known to stimulate the activity of protein kinase C (PKC) (data not shown)."}, "Treg": {"test_system": "Treg", "assay": "Treg apoptosis (propidium iodide sub-G1, annexin V, FACS)", "type": "cell-based, mouse", "conditions": "Treg incubated with compound", "description": "(viii) FACS analysis of annexin V-positive regulatory T cells. PE-stained CD25^+ cells were stained for annexin V-FITC according to the manufacturer's instructions. The cells were scored as described above, and CD25^+ lymphocytes were then gated for analysis of annexin V-positive cells.\n(xv) Propidium iodide staining. Cells were fixed in cold ethanol 80% and treated with RNAse. Propidium iodide was then applied, and cell samples were assessed by FACSort."}, "[6]": {"test_system": "mouse solid melanoma tumor cells M2R", "assay": "M2R melanoma tumor development in mice", "type": "in vivo", "description": "To verify the effect of dopamine and its related compounds on tumor growth, C57BL mice were injected with the specific D1-R agonist SKF-38393 (3.3 mg/kg) immediately after inoculation of mouse solid melanoma tumor cells M2R. The experimental group (n=10) received a single injection of SKF-38393, and a control group (n=11) was injected with PBS.\nTo further isolate the effect of dopamine on the immune system, C57BL mice (n=10) and SCID mice (n=8) were injected with SKF-38393 (3.3 mg/kg) immediately after injecting them with solid tumor cells M2R (FIG. 9c)."}}, "note": "Where “and” joins values, the source holds several entries; their conditions need not be identical. Equal entries are not always repeated. Entries after “also recorded” stand apart in the source; their conditions may differ. Marks after values point to notes of the source that are not given here. Where no end group is shown, it is not given here."}
{"compound": "NC[C@H](O)c1ccc(O)c(O)c1", "note": "[norepinephrine]", "values": [{"measurement": "Effect on suppressive activity of Treg", "setting": "[1]; 10^−5 or 10^−7 M for 2 h after 24 h activation", "result": "did not affect the suppressive activity of Treg"}, {"measurement": "Effect on ability of Treg to suppress Teff proliferation", "setting": "[1]", "result": "no effect"}]}
{"compound": "CN1CCc2cc(Cl)c(O)cc2[C@@H](c2ccccc2)C1", "note": "[SCH-23390]", "values": [{"measurement": "Decrease in neuronal survival relative to PBS-injected mice", "setting": "[2]; Balb/c, SCH-23390 3 mg/kg i.p., 3 mg/kg", "result": "11±1.5% and 11%"}, {"measurement": "Changes in neuronal survival in treated relative to untreated mice (mean±SEM)", "setting": "[2]; Wild type mice", "result": "−11 ± 1.5** percentage"}]}
{"compound": "O=c1c(-c2ccc(O)cc2)coc2cc(O)cc(O)c12", "note": "[genistein, 4′,5,7-trihydroxy isoflavone]", "values": [{"measurement": "Suppressive activity of Treg on Teff, kinase inhibitor treatment", "setting": "[1]", "result": "blocked the suppressive activity"}, {"measurement": "Proliferation of Treg themselves", "setting": "[1]; in the presence of genistein", "result": "underwent proliferation themselves"}, {"measurement": "Proliferation of Teff", "setting": "[1]; same concentration as used on Treg", "result": "had no effect"}]}
{"compound": "NCCc1c[nH]c2ccc(O)cc12", "note": "[serotonin]", "values": [{"measurement": "Effect on ability of Treg to suppress Teff proliferation", "setting": "[1]", "result": "no effect"}]}
{"compound": "Oc1cc2c(cc1O)C(c1ccccc1)CNCC2", "note": "(racemic) [SKF-38393, (+/−)-1-Phenyl-2,3,4,5-tetrahydro-(1H)-3-benzazepine-7,8-diol.HC1]", "values": [{"measurement": "Adhesion of Treg to CSPG", "setting": "[3]; dopamine 10^−9-10^−5 M, concentration-dependent, agonist 10^−5 M", "result": "mimicked"}, {"measurement": "Increase in neuronal survival relative to PBS-treated glutamate-injected controls", "setting": "[2]; Balb/c, single i.p. injection, dopamine 0.4 mg/kg, SKF-38393 3.3 mg/kg", "result": "19±3.2", "unit": "%"}, {"measurement": "Effect on neuronal survival in immune-deficient mice", "setting": "[2]; SCID Balb/c, 3.3 mg/kg", "result": "no effect; also recorded: lack of effect"}, {"measurement": "Changes in neuronal survival in treated relative to untreated mice (mean±SEM)", "setting": "[2]; SCID mice", "result": "3 ± 1.8 (ns) percentage"}, {"measurement": "Changes in neuronal survival in treated relative to untreated mice (mean±SEM)", "setting": "[2]; Wild type mice", "result": "19 ± 3.2** percentage"}, {"measurement": "Neuronal survival compared to vehicle-injected mice", "setting": "[4]; 0.33 mg/kg i.v.", "result": "neuroprotective trend, however not significant"}, {"measurement": "Neuronal survival compared to vehicle-injected mice", "setting": "[4]; 3.3 mg/kg i.v.", "result": "significant increase in neuronal survival"}, {"measurement": "Phospho-ERK1/2 in activated Treg, Western blot", "setting": "[5]", "result": "reduced"}, {"measurement": "Apoptosis, annexin V staining for phosphatidylserine", "setting": "Treg", "result": "No increase in annexin V-labeled cells"}, {"measurement": "Tumor development", "setting": "[6]; C57BL mice, single injection 3.3 mg/kg immediately after M2R inoculation", "result": "significantly attenuated"}, {"measurement": "Tumor development", "setting": "[6]; SCID mice, 3.3 mg/kg immediately after M2R inoculation", "result": "No effect"}, {"measurement": "Effect on suppressive activity of Treg, compound alone", "setting": "[1]; 10^−5 M", "result": "reproduced the dopamine effect"}]}
{"compound": "COc1cccc(-c2cc(=O)c3ccccc3o2)c1N", "note": "[PD98059]", "values": [{"measurement": "Adhesion of Treg to CSPG after ERK1/2 pathway inhibitor", "setting": "[3]; Treg incubated with PD98059 before assay", "result": "significantly reduced"}, {"measurement": "Suppressive activity of Treg on Teff, kinase inhibitor treatment", "setting": "[1]", "result": "significantly reduced the suppressive activity; also recorded: almost completely abolished their suppression"}]}
{"compound": "substance P: a pain- and stress-related neurotransmitter (neuropeptide) (RPKPQQFFGLM-NH2; UniProt P20366 58-68, looked up)", "values": [{"measurement": "Effect on ability of Treg to suppress Teff proliferation", "setting": "[1]", "result": "no effect"}]}
